In ChEMBL document CHEMBL1201862, “PubChem BioAssay data set” (2004):
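All cell lines were grown in 96-well plates and treated with compound for 48 hours. GI50 = concentration required for 50% inhibition of growth.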 Activity calls are given as the source filed them. Cut-off read from the data, not from the text of the source: active = GI50 up to about 1.1 µM and inactive = higher.

Tests used:
Assay in all cases: NCI tumour cell line growth inhibition, 48 h
A549 = system: A549
ACHN = system: ACHN
COLO 205 = system: COLO 205
DU-145 = system: DU-145
KM12 = system: KM12
MDA-MB-231 = system: MDA-MB-231
MDA-MB-435 = system: MDA-MB-435
MOLT-4 = system: MOLT-4
NCI-H226 = system: NCI-H226
NCI-H23 = system: NCI-H23
OVCAR-5 = system: OVCAR-5
OVCAR-8 = system: OVCAR-8
SF-268 = system: SF-268
SF-539 = system: SF-539
SK-MEL-28 = system: SK-MEL-28
SK-MEL-2 = system: SK-MEL-2
SN12C = system: SN12C
SNB-19 = system: SNB-19
U-251 = system: U-251

Measured: GI50

C=CCSC1=N/C(=C\c2cccs2)C(=O)N1CC=C
inactive: A549 33.7 µM | ACHN 54.6 µM | COLO 205 56.2 µM | DU-145 79.3 µM | KM12 40 µM | MDA-MB-231 83.4 µM | MDA-MB-435 60.3 µM | MOLT-4 18.7 µM | NCI-H226 44.2 µM | NCI-H23 94.8 µM | OVCAR-5 > 100 µM | OVCAR-8 44.6 µM | SF-268 > 100 µM | SF-539 > 100 µM | SK-MEL-28 > 100 µM | SK-MEL-2 > 100 µM | SN12C 53.1 µM | SNB-19 > 100 µM | U-251 61.5 µM

Cc1ccc2oc3c(c(Br)c(Br)n3C)c(=O)c2c1
inactive: A549 20.5 µM | ACHN 16.7 µM | COLO 205 > 100 µM | DU-145 78.9 µM | KM12 > 100 µM | MDA-MB-231 20.3 µM | MDA-MB-435 > 100 µM | MOLT-4 > 100 µM | NCI-H226 15.6 µM | NCI-H23 19.5 µM | OVCAR-5 41.6 µM | OVCAR-8 17.4 µM | SF-268 29.4 µM | SF-539 20 µM | SK-MEL-28 > 100 µM | SK-MEL-2 25.8 µM | SN12C 18.3 µM | SNB-19 17.8 µM | U-251 18.2 µM

COc1cc2oc(-c3ccc(O)cc3)cc(=O)c2c(OC)c1O
inactive: A549 89.9 µM | ACHN 32.7 µM | COLO 205 > 100 µM | DU-145 94.8 µM | MDA-MB-231 46.9 µM | MDA-MB-435 > 100 µM | MOLT-4 > 100 µM | NCI-H226 > 100 µM | NCI-H23 > 100 µM | OVCAR-5 > 100 µM | OVCAR-8 49.7 µM | SF-268 37.8 µM | SF-539 > 100 µM | SK-MEL-28 > 100 µM | SK-MEL-2 > 100 µM | SN12C 68.7 µM | SNB-19 45.4 µM | U-251 38.9 µM

COC(=O)C1=C(C)NC(C)=C(C(=O)OC)C1c1ccc(NO)cc1
inactive: A549 18.2 µM | ACHN 12.6 µM | COLO 205 12.5 µM | DU-145 19.1 µM | KM12 17.1 µM | MDA-MB-231 12.8 µM | MDA-MB-435 14.1 µM | MOLT-4 2.86 µM | NCI-H226 17.3 µM | NCI-H23 21.3 µM | OVCAR-5 15.7 µM | OVCAR-8 10.2 µM | SF-268 19 µM | SF-539 15.8 µM | SK-MEL-28 17.5 µM | SK-MEL-2 17.1 µM | SN12C 18.7 µM | SNB-19 24.6 µM | U-251 15.9 µM

CC(=O)OCC1OC(n2cnc(C(N)=S)c2N)C(OC(C)=O)C1OC(C)=O (centres undefined)
inactive: A549 > 100 µM | ACHN > 100 µM | COLO 205 > 100 µM | DU-145 > 100 µM | KM12 > 100 µM | MDA-MB-231 > 100 µM | MDA-MB-435 > 100 µM | MOLT-4 > 100 µM | NCI-H226 > 100 µM | NCI-H23 > 100 µM | OVCAR-5 > 100 µM | OVCAR-8 > 100 µM | SF-268 > 100 µM | SF-539 > 100 µM | SK-MEL-28 > 100 µM | SK-MEL-2 > 100 µM | SN12C > 100 µM | SNB-19 > 100 µM | U-251 > 100 µM

COc1cc(/C=C/C(=O)O)ccc1OS(=O)(=O)O
inactive: A549 > 100 µM | ACHN > 100 µM | COLO 205 > 100 µM | DU-145 > 100 µM | KM12 > 100 µM | MDA-MB-231 > 100 µM | MDA-MB-435 > 100 µM | MOLT-4 > 100 µM | NCI-H226 > 100 µM | NCI-H23 > 100 µM | OVCAR-5 > 100 µM | OVCAR-8 > 100 µM | SF-268 > 100 µM | SF-539 > 100 µM | SK-MEL-28 > 100 µM | SK-MEL-2 > 100 µM | SN12C > 100 µM | SNB-19 > 100 µM | U-251 > 100 µM

O=C1Nc2cc([N+](=O)[O-])ccc2N/C1=C/C(=O)c1ccc(Cl)cc1
inactive: A549 10 µM | ACHN 15.1 µM | COLO 205 24.4 µM | DU-145 6.71 µM | KM12 14.4 µM | MDA-MB-231 5.83 µM | MDA-MB-435 18.7 µM | MOLT-4 17 µM | NCI-H226 19.5 µM | NCI-H23 14.2 µM | OVCAR-5 21.5 µM | OVCAR-8 8 µM | SF-268 11.7 µM | SF-539 10.7 µM | SK-MEL-28 10.6 µM | SK-MEL-2 16.9 µM | SNB-19 11.2 µM | U-251 6.56 µM

O=C(c1ccccc1Cl)n1oc2ccccc2c1=O
inactive: A549 > 100 µM | ACHN > 100 µM | COLO 205 35.7 µM | DU-145 > 100 µM | KM12 84.1 µM | MDA-MB-231 > 100 µM | MDA-MB-435 > 100 µM | MOLT-4 22.8 µM | NCI-H226 67 µM | OVCAR-5 > 100 µM | OVCAR-8 > 100 µM | SF-268 > 100 µM | SF-539 37.8 µM | SK-MEL-28 > 100 µM | SK-MEL-2 > 100 µM | SN12C > 100 µM | SNB-19 > 100 µM | U-251 > 100 µM
